Measured values reported in ChEMBL document CHEMBL1909046, “DrugMatrix in vitro pharmacology data”.

How the values were obtained:
[1] = target: T1, Alpha-1D adrenergic receptor (Homo sapiens, UniProt P25100); assay type: cell membranes, HEK293, Membrane; further: in other assays of this panel Not Active means under 50% inhibition at 10 µM
T1 sequence (P25100 whole entry): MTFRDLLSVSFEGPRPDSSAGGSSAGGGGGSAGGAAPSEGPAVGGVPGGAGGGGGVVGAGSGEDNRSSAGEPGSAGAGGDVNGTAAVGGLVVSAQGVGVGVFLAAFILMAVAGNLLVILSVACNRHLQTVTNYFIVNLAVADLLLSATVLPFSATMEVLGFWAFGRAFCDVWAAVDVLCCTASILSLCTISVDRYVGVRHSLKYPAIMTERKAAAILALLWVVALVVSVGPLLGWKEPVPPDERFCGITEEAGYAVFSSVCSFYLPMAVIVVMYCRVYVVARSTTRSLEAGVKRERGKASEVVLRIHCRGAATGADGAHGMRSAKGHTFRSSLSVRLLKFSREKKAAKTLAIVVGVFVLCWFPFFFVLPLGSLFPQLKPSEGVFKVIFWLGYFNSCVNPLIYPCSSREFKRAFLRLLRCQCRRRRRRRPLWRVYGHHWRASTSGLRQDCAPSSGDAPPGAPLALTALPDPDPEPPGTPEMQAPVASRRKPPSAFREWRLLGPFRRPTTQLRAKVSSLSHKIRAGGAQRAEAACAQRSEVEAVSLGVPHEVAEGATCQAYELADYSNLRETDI

[2] = target: Beta-1 adrenergic receptor (Homo sapiens, UniProt P08588); assay: DRUGMATRIX: Adrenergic beta1 radioligand binding (ligand: [125I] Cyanopindolol); assay type: cell membranes, CHO-K1, Membrane; conditions: cho-k1; Not Active = under 50% inhibition at 10 µM
[3] = DRUGMATRIX: Calcium Channel Type L, Benzothiazepine radioligand binding (ligand: [3H] Diltiazem); assay type: cell membranes, Rattus norvegicus, Wistar, Brain, Membrane; conditions: Not Active = under 50% inhibition at 10 µM
[4] = DRUGMATRIX: Serotonin (5-Hydroxytryptamine) 5-HT3 radioligand binding (ligand: [3H] GR-65630); assay type: cell membranes, Membrane; conditions: hek293; Not Active = under 50% inhibition at 10 µM
[5] = target: Carbonic anhydrase 2 (Homo sapiens, UniProt P00918); assay: DRUGMATRIX: Carbonic Anhydrase II enzyme inhibition (substrate: 4-Nitrophenyl acetate (4-NPA)); assay type: tissue-based, Erythrocyte; conditions: erythrocyte; Not Active = under 50% inhibition at 10 µM
[6] = target: T2, Cholecystokinin receptor type A (Homo sapiens, UniProt P32238); assay type: cell membranes, Membrane; conditions: 1321-n1; further: in other assays of this panel Not Active means under 50% inhibition at 10 µM
T2 sequence (P32238 whole entry): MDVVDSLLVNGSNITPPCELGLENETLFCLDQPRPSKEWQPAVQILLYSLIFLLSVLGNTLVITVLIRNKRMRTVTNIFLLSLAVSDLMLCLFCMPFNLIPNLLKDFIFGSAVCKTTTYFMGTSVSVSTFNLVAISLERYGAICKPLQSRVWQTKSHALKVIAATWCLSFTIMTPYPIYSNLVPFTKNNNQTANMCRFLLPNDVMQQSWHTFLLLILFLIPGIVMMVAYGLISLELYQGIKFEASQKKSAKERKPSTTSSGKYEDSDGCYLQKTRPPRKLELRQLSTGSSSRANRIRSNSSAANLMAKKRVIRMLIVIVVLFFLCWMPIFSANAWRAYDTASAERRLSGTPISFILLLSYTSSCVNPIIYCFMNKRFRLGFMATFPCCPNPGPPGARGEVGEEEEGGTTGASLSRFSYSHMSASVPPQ

[7] = target: Melanocortin receptor 4 (Homo sapiens, UniProt P32245); assay type: cell membranes, Membrane; conditions: hek293; further: in other assays of this panel Not Active means under 50% inhibition at 10 µM
Chain of Melanocortin receptor 4 (P32245 whole entry): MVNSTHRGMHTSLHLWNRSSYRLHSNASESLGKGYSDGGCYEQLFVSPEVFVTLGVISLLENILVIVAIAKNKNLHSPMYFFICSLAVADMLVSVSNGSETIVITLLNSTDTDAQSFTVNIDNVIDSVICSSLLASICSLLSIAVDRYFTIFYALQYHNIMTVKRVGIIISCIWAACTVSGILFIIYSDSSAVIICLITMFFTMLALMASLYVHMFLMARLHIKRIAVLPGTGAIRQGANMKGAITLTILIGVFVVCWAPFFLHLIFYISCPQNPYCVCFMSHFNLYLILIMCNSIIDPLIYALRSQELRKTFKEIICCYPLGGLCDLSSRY

Chain of Beta-1 adrenergic receptor (P08588 whole entry): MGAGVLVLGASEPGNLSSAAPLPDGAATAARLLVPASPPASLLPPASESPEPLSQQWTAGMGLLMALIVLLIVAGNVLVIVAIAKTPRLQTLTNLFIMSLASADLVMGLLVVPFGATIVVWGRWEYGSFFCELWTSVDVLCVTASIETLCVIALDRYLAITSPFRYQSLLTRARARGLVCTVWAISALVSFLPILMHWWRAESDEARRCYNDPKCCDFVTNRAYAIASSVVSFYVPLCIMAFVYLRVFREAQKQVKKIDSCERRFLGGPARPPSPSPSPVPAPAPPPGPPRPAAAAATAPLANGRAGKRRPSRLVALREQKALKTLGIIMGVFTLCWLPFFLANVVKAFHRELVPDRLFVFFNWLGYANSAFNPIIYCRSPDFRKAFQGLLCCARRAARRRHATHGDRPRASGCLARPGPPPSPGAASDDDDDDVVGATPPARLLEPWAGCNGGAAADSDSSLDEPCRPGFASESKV

Row | SMILES | IC50 ([1]; hek293) | IC50 [2] | IC50 [3] | Ki [3] | IC50 [4] | Ki [4] | IC50 [5] | IC50 [6] | IC50 [7] | IC50 ([3]; read-out: IC50) | Ki ([3]; read-out: Ki) | IC50 ([1]; read-out: IC50) | Ki ([1]; read-out: Ki)
1 | CC[C@H](C)C(=O)O[C@H]1C[C@H](O)C=C2C=C[C@H](C)[C@H](CC[C@@H](O)C[C@@H](O)CC(=O)O)[C@H]21 [PRAVASTATIN] | Not Active | Not Active | Not Active | Not Active | Not Active | Not Active | Not Active | Not Active | Not Active | – | – | – | –
2 | N[C@@H](Cc1ccc(F)cc1)C(=O)O | Not Active | Not Active | Not Active | Not Active | Not Active | Not Active | Not Active | Not Active | Not Active | – | – | – | –
3 | C[C@]12C/C(=C/O)C(=O)C[C@@H]1CC[C@@H]1[C@@H]2CC[C@@]2(C)[C@H]1CC[C@]2(C)O [OXYMETHOLONE] | Not Active | Not Active | Not Active | Not Active | Not Active | Not Active | Not Active | Not Active | Not Active | – | – | – | –
4 | Clc1cc2c(cc1Cl)Oc1cc(Cl)c(Cl)cc1O2 [2,3,7,8-TETRACHLORODIBENZO-P-DIOXIN] | Not Active | Not Active | Not Active | Not Active | Not Active | Not Active | Not Active | Not Active | Not Active | – | – | – | –
5 | OCCO [ETHYLENE GLYCOL] | Not Active | Not Active | Not Active | Not Active | Not Active | Not Active | Not Active | Not Active | Not Active | – | – | – | –
6 | O=C(/C=C/c1ccc(O)c(O)c1)OCCc1ccccc1 [CAFFEIC ACID PHENETHYL ESTER] | Not Active | Not Active | Not Active | Not Active | Not Active | Not Active | Not Active | Not Active | Not Active | – | – | – | –
7 | NC[C@@H]1O[C@H](O[C@H]2[C@@H](O)[C@H](O[C@@H]3[C@@H](O)[C@H](N)C[C@H](N)[C@H]3O[C@H]3O[C@H](CN)[C@@H](O)[C@H](O)[C@H]3N)O[C@@H]2CO)[C@H](N)[C@@H](O)[C@@H]1O [FRAMYCETIN] | Not Active | Not Active | Not Active | Not Active | Not Active | Not Active | Not Active | Not Active | Not Active | – | – | – | –
8 | CCCCCC[C@H]1C(=O)O[C@H](C)[C@H](NC(=O)c2cccc(NC=O)c2O)C(=O)O[C@@H](C)[C@@H]1OC(=O)CC(C)C [ANTIMYCIN A] | Not Active | Not Active | Not Active | Not Active | Not Active | Not Active | Not Active | Not Active | Not Active | – | – | – | –
9 | Oc1ccccc1O [CATECHOL] | Not Active | Not Active | Not Active | Not Active | Not Active | Not Active | Not Active | Not Active | Not Active | – | – | – | –
10 | Cc1c(F)c(N2CCNC(C)C2)cc2c1c(=O)c(C(=O)O)cn2C1CC1 (configuration not stated) [GREPAFLOXACIN] | Not Active | Not Active | Not Active | Not Active | Not Active | Not Active | Not Active | Not Active | Not Active | – | – | – | –
11 | [N-]=[N+]=CC(=O)OC[C@H](N)C(=O)O [AZASERINE] | Not Active | Not Active | Not Active | Not Active | Not Active | Not Active | Not Active | Not Active | Not Active | – | – | – | –
12 | C#C[C@]1(O)CC[C@H]2[C@@H]3CCC4=Cc5oncc5C[C@]4(C)[C@H]3CC[C@@]21C [DANAZOL] | Not Active | Not Active | – | – | Not Active | Not Active | Not Active | Not Active | Not Active | 14.6 µM | 13 µM | – | –
13 | CO[C@H]1[C@@H](O)[C@H](N)[C@@H](O[C@H]2O[C@H]([C@H](C)N)CC[C@H]2N)[C@H](O)[C@@H]1N(C)C(=O)CN [ASTROMICIN] | Not Active | Not Active | Not Active | Not Active | Not Active | Not Active | Not Active | Not Active | Not Active | – | – | – | –
14 | COc1ccc2cc(CCC(C)=O)ccc2c1 [NABUMETONE] | Not Active | Not Active | Not Active | Not Active | Not Active | Not Active | Not Active | Not Active | Not Active | – | – | – | –
15 | N=C(N)N/N=C/c1c(Cl)cccc1Cl [GUANABENZ] | – | Not Active | Not Active | Not Active | Not Active | Not Active | Not Active | Not Active | Not Active | – | – | 472 nM | 232 nM
16 | NC(=O)N1c2ccccc2C=Cc2ccccc21 [CARBAMAZEPINE] | Not Active | Not Active | Not Active | Not Active | Not Active | Not Active | Not Active | Not Active | Not Active | – | – | – | –
17 | Cc1c(N(C)CS(=O)(=O)[O-])c(=O)n(-c2ccccc2)n1C.[Na+] [DIPYRONE SODIUM] | Not Active | Not Active | Not Active | Not Active | Not Active | Not Active | Not Active | Not Active | Not Active | – | – | – | –
18 | OCCN1CCN(CCCN2c3ccccc3Sc3ccc(Cl)cc32)CC1 [PERPHENAZINE] | Not Active | Not Active | Not Active | Not Active | Not Active | Not Active | Not Active | Not Active | Not Active | – | – | – | –
19 | CC[C@]1(O)CC[C@H]2[C@@H]3CCC4=CCCC[C@@H]4[C@H]3CC[C@@]21C | Not Active | Not Active | Not Active | Not Active | Not Active | Not Active | Not Active | Not Active | Not Active | – | – | – | –
20 | CCOC(=O)n1ccn(C)c1=S [CARBIMAZOLE] | Not Active | Not Active | Not Active | Not Active | Not Active | Not Active | Not Active | Not Active | Not Active | – | – | – | –
21 | COc1ccc(Cc2nccc3cc(OC)c(OC)cc23)cc1OC [PAPAVERINE] | Not Active | Not Active | Not Active | Not Active | Not Active | Not Active | Not Active | Not Active | Not Active | – | – | – | –
22 | C#C[C@]1(O)CC[C@H]2[C@@H]3CCc4cc(O)ccc4[C@H]3CC[C@@]21C [ETHINYL ESTRADIOL] | Not Active | Not Active | – | – | Not Active | Not Active | Not Active | Not Active | Not Active | 15.4 µM | 13.7 µM | – | –
23 | C[C@H]([C@](O)(Cn1cncn1)c1ccc(F)cc1F)S(C)(=O)=O [GENACONAZOLE] | Not Active | Not Active | Not Active | Not Active | Not Active | Not Active | Not Active | Not Active | Not Active | – | – | – | –
24 | CCOC(=O)C1=C(C)NC(C)=C(C(=O)OC)C1c1cccc(Cl)c1Cl (configuration not stated) [FELODIPINE] | Not Active | Not Active | – | – | Not Active | Not Active | Not Active | Not Active | Not Active | 0.023 µM | 0.02 µM | – | –
